Measured values from patent US9284345B2 (priority 2007, dated 2016).
Several values for one entry are separate records, joined by “and”; a condition that tells them apart may be missing. Identical values can stand only once.

Assays:
[1] = tested on: Shionogi mouse mammary carcinoma cells; assay: cells; type: cell-based
Human Androgen Receptor = target: T1, Human Androgen Receptor (Homo sapiens, UniProt P10275); type: binding
T1 construct: expressed in transfected cells; host or cells: HEK-293 cells stably transfected with the pCMVneo-hAR plasmid (G-418 selection); cytosol used
T1 sequence (P10275 1-920): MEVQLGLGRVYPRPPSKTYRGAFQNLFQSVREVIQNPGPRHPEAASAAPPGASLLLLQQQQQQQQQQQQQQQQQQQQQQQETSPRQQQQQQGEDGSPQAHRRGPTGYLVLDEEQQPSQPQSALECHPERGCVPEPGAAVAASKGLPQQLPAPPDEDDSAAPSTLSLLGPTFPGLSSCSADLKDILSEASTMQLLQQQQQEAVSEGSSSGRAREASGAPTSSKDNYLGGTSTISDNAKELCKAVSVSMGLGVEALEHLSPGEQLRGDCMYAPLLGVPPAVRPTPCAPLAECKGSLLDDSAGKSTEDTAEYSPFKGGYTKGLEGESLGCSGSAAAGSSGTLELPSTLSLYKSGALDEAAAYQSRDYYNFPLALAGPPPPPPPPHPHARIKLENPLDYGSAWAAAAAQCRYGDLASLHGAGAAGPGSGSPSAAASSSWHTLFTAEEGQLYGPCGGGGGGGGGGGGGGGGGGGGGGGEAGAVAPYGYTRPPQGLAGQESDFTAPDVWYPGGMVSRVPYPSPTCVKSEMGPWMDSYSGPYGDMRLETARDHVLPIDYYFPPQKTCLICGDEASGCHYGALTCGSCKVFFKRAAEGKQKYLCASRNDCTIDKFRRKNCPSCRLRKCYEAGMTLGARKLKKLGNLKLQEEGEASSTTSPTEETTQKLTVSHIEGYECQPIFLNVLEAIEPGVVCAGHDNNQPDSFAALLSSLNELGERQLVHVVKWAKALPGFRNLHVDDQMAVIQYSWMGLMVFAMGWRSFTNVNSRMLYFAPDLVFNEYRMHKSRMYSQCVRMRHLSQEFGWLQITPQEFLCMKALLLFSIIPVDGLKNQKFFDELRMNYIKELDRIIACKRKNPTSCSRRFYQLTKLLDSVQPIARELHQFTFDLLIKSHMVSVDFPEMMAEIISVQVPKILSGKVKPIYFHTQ

Immature Rat CX + DHT = assay: animal or person; type: in vivo; settings: rat, in vivo
Intact Rat = assay: In vivo activity in intact rat (organ and muscle weight)
in vivo = settings: male, Sprague-Dawley, rat, plasma, po, 0.5 mg/animal
androgen receptor = assay: Antiandrogen / SARM / androgen profile observed on structural change; settings: structure-activity observation in estratriene derivatives
Excerpt: Preferred positions on the steroid to this change in activities are 3, 4, 11β, 16 and 17α. […] Moreover, when we changed the 4-fluoro by a 4-chloro on EM-6583, we obtained a pure androgen (EM-5697). Similarly, when we increased the size of the chain at 17α-position on (1,4-phenylene as a spacer group), EM-8419 became a SARM. Again, when we changed the 4-fluoro by a 4-chloro on EM-8419, we obtained a pure androgen (EM-5313).
We also believed that a larger size increase could reverse the observed tendency (androgen to SARM or antiandrogen). Thus, it is not obvious to make good predictions of the biological activity of this compound family but some trends are observable.

Rat Androgen Receptor = target: T2, Rat Androgen Receptor (Rattus norvegicus, UniProt P15207); assay: Androgen receptor binding assay (HAP, [3H]R1881), rat prostate cytosol
T2 construct: ventral prostates collected from 24 h-gonadectomized rats were homogenized in buffer A; from tissue; host or cells: rat ventral prostate cytosol (24 h-gonadectomized rats)
T2 sequence (P15207 1-902): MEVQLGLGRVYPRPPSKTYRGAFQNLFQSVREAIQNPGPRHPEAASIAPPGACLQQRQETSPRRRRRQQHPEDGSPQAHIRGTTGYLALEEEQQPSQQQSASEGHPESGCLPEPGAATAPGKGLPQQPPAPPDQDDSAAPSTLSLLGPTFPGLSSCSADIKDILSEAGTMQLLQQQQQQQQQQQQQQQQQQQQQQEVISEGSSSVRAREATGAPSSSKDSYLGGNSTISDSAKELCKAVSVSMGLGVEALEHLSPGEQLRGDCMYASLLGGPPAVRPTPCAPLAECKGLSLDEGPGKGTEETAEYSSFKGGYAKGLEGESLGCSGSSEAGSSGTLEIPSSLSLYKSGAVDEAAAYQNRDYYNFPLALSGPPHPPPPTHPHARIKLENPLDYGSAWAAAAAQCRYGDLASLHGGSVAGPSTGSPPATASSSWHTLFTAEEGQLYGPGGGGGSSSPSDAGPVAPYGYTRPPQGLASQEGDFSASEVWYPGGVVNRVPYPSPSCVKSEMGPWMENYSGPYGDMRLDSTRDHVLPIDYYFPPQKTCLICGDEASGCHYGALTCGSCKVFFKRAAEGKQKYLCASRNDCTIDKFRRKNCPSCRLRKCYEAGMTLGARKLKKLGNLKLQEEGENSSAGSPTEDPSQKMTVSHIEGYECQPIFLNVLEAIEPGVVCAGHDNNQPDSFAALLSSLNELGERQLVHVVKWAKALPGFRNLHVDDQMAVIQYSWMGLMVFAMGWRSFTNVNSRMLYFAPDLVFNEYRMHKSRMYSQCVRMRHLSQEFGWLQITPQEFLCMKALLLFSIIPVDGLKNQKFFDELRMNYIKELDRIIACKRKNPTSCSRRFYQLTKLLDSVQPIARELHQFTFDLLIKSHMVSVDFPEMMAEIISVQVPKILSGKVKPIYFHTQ
Procedure: On the morning of the binding assay, ventral prostates collected from 24 h-gonadectomized rats were homogenized in buffer A (1 g of tissue in 5 mL) and the homogenate was centrifuged as described above.
Androgen binding is measured using the hydroxylapatite (HAP) assay. In brief, the radioactive steroid [^3H]R1881 solubilized in ethanol is diluted with buffer B (10 mM Tris-HCl, 1.5 mM EDTA disodium salt, 10 mM α-monothioglycerol, pH 7.4). Aliquots of the cell or prostate cytosol preparation (0.1 ml) are then incubated with 5 nM [^3H]R1881 (0.1 ml, ˜100 000 cpm) in the presence or absence of the indicated concentrations of unlabeled compounds (0.1 ml, prepared in buffer B containing 30% ethanol) for 16-18 h at 0-4° C. Triamcinolone acetonide (TAC; 100 nM) is added to mask progesterone receptors. Unbound steroids are separated by incubation for 40 min at 0-4° C. with 0.3 ml HAP prepared in buffer P (50 mM Tris-HCl, 10 mM KH2PO4, pH 7.4). After incubation with HAP and 10 min of centrifugation at 1000×g, the pellet is washed 3 times with 1 ml of buffer P. Thereafter, the radioactivity is extracted from the pellet by incubation at room temperature for 60 min with 1 ml of ethanol. After centrifugation, the supernatant is decanted into a scintillation vial and the pellet is extracted again with ethanol. After the addition of scintillation liquid, the radioactivity is measured in a liquid scintillation counter.

C[C@@]1(Cc2ccc(C#N)cc2)CC2C3CCc4c(C#N)cccc4C3CC[C@]2(C)[C@H]1O (stereo partly drawn) [EM-3585]
% of stim of basal at 10^−7M (% over basal) [1]: +279%
% of stim of basal at 10^−7 M (DHT = 100%) [1]: +63%
inhibition at 0.0003 µM ([1]; Mus musculus, read-out: % of inh of DHT at 10^−7 M (Basal = 100%)): 41%
Human Androgen Receptor Binding RBA (%) R1881 = 100% (Human Androgen Receptor): 55%
In Vivo Agonist Rat CX % change vs CX (DHT CONT = +100%) Bulbo (Immature Rat CX): +74 ± 18%
In Vivo Agonist Rat CX % change vs CX (DHT CONT = +100%) SV (Immature Rat CX): +13 ± 4%
In Vivo Agonist Rat CX % change vs CX (DHT CONT = +100%) VP (Immature Rat CX): +20 ± 4%
In Vivo Anti-A Rat CX + DHT % change vs DHT (CX CONT = −100%) Bulbo (Immature Rat CX + DHT; po): [+67 ± 21] %
In Vivo Anti-A Rat CX + DHT % change vs DHT (CX CONT = −100%) SV (Immature Rat CX + DHT; po): [−2 ± 15] %
In Vivo Anti-A Rat CX + DHT % change vs DHT (CX CONT = −100%) VP (Immature Rat CX + DHT; po): [−26 ± 7] %
In Vivo Intact Rat % change vs Intact CONT (Intact CONT = +100%; CX CONT = 0%) Bulbo (Intact Rat; 0.1 mg/rat/os/ID, bulbocavernosus muscles weight): +263 ± 64%
In Vivo Intact Rat % change vs Intact CONT (Intact CONT = +100%; CX CONT = 0%) VP (Intact Rat; 0.1 mg/rat/os/ID, prostate weight): +82 ± 17%
In Vivo Intact Rat % change vs Intact CONT (Intact CONT = +100%; CX CONT = 0%) SZ (Intact Rat; rat, in vivo): +114 ± 23%
AUC(0-t) (in vivo): 2370 ± 253 ng·h/mL

C[C@]12CCC3c4ccc(C#N)c(Cl)c4CCC3C1CC[C@@]2(O)Cc1ccc(-c2ccc[n+]([O-])c2)cc1 (stereo partly drawn) [EM-5313]
activity profile (antiandrogen, SARM or androgen) (androgen receptor): pure androgen

CC1CC2(C)C(CCC2(O)Cc2cc[n+]([O-])cc2)C2CCc3c(ccc(C#N)c3Cl)C12 (stereo not drawn) [EM-5697]
activity profile (antiandrogen, SARM or androgen) (androgen receptor): pure androgen

Cc1c(C#N)ccc2c1CCC1C2CCC2(C)C1CCC2(O)Cc1cc[n+]([O-])cc1 (stereo not drawn) [EM-5985]
Shionogi cells Antiandrogenic activity Ki OH-Flu/Ki compound [1]: 12 and 12 ± 4
activity on the basal level of Shionogi cell proliferation [1]: none of these compounds has any activity
Ki ([1]; read-out: Shionogi cells Antiandrogenic activity Ki): 900 ± 200 pM
Rat Androgen Receptor Binding RBA (%) R1881 = 100% (Rat Androgen Receptor): 0.6%
Human Androgen Receptor Binding RBA (%) R1881 = 100% (Human Androgen Receptor): 2.0 ± 0.3%
affinity for the human compared to the rat androgen receptor (Human Androgen Receptor): approximately 3 fold
In Vivo Agonist % Change vs CX (DHT = +100%) SV (Immature Rat CX; po): [0] %
In Vivo Agonist % Change vs CX (DHT = +100%) VP (Immature Rat CX; po): [0] %
inhibition of DHT-stimulated seminal vesicle weight (Immature Rat CX + DHT): 84%
inhibition of DHT-stimulated ventral prostate weight (Immature Rat CX + DHT): 69%
potency on rat androgen-sensitive parameters relative to currently available antiandrogens (Immature Rat CX + DHT): approximately 5 times
